# Measured values from PMC6510822, “Identification of anticancer OATP2B1 substrates by an in vitro triple-fluorescence-based cytotoxicity screen” (Archives of Toxicology, 2019).
# Like-named read-outs stand apart in the source and are kept apart here. Marks after values point to notes of the source that are not given here.
# Columns and labels:
# [1] = tested on: Mes-Sa-B1 cells (Pgp overexpressing); test: Fluorescence-based cytotoxicity assay, Mes-Sa-B1 mOr; conditions: for RR (Mes-Sa-B1): resistance ratio = IC50 Mes-Sa-B1 / IC50 parental Mes-Sa, triple co-culture screen; for IC50: fluorescent protein based assay
# Mes-Sa/Dx5 cells [2] = test: Fluorescence-based cytotoxicity assay, Mes-Sa/Dx5 eGFP; conditions: for RR (Dx5): resistance ratio = IC50 Mes-Sa/Dx5 / IC50 parental Mes-Sa; for IC50: fluorescent protein based assay
# A431 cells [3] = test: Fluorescence-based cytotoxicity assay, parental A431 eGFP
# [4] = tested on: A431-B1 cells (ABCB1/P-glycoprotein expressing); test: Fluorescence-based cytotoxicity assay, ABCB1-expressing A431-B1 mCh; conditions: for RR (A431B1): resistance ratio = IC50 A431B1 / IC50 parental A431, triple co-culture screen; for IC50: fluorescent protein based assay
# [5] = tested on: A431-2B1 cells (OATP2B1 expressing); test: Fluorescence-based cytotoxicity assay, OATP2B1-expressing A431-2B1 mCh; conditions: for SR, monoculture / SR, co-culture: IC50 A431 eGFP / IC50 A4312B1 mCh; for SR (A431-2B1 vs parental A431), screening of DTP Oncology Set IV: primary screen, Fig. 4 inset; for SR (A431-2B1 vs parental A431), screening of DTP Oncology Set IV / SR, co-culture: co-culture; for IC50: 9 concentration points, at least 3 replicates
# OATP2B1 [6] = test: as above; conditions: human
# OATP2B1 [7] = biological target: T1, OATP2B1 (Homo sapiens, UniProt O94956); test: Inhibition of OATP2B1-mediated Cascade Blue uptake (microplate-based uptake assay, A431-2B1 cells)
# T1 sequence (O94956 1-709): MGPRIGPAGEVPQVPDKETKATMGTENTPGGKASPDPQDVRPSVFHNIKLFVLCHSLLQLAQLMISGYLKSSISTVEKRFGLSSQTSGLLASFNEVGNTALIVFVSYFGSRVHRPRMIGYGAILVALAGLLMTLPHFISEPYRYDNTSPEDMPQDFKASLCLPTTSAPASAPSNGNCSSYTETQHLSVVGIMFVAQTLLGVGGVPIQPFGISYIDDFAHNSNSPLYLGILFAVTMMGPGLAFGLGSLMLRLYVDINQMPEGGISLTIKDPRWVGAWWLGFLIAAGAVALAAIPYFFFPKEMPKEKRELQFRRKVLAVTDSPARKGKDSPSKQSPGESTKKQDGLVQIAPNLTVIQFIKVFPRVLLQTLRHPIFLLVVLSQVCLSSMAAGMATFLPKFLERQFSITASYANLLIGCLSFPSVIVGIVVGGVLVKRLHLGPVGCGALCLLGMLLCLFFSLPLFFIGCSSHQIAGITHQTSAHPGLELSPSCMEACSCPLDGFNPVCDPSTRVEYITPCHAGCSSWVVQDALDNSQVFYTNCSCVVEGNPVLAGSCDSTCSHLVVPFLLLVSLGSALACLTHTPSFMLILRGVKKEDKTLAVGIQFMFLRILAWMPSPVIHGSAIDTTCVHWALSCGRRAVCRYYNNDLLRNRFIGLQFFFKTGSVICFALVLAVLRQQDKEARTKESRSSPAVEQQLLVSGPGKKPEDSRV
# A431 cells [8] = test: PrestoBlue-based cytotoxicity assay, A431; assay type: cell-based, human; conditions: PrestoBlue viability assay
# Procedure: (§1) All experiments were performed using a robotic pipetting workstation (Hamilton Robotics STAR Let). Cells were seeded at a final cell density of 1875 cells per well in 384-well plates in the triple co-culture (625 cells from each lines) and at 2500 cells per well in the A431 control and A431-2B1 co-culture (1250 cells from both) systems. Co-cultured cells were incubated for 24 h at 37 °C and 5% CO2 under humidified atmosphere prior to the addition of drugs. […] Data were exported to a custom-made program for determining growth inhibition curves for each cell line. In confirmatory screens, compounds were tested with the same method in a nine-point dose response format. For validation, compounds were confirmed in cytotoxicity assays using the PrestoBlue cell viability reagent (ThermoFisher), according to the manufacturer’s instructions.
# A431B1 cells = test: PrestoBlue-based cytotoxicity assay, A431B1; assay type: cell-based, human; conditions: PrestoBlue viability assay
# Procedure: as §1
# A431G2 cells = test: PrestoBlue-based cytotoxicity assay, A431G2; assay type: cell-based, human; conditions: PrestoBlue viability assay
# Procedure: as §1
# Mes-Sa cells [9] = test: PrestoBlue-based cytotoxicity assay, Mes-Sa; assay type: cell-based, human; conditions: PrestoBlue viability assay
# Procedure: as §1
# Mes-Sa/Dx5 cells [10] = test: PrestoBlue-based cytotoxicity assay, Mes-Sa/DX5; assay type: cell-based, human; conditions: PrestoBlue viability assay
# Procedure: as §1
# Mes-Sa-B1 cells = test: PrestoBlue-based cytotoxicity assay, Mes-Sa-B1; assay type: cell-based, human; conditions: PrestoBlue viability assay
# Procedure: as §1
# Mes-Sa cells [11] = test: Fluorescence-based cytotoxicity assay, parental Mes-Sa mCh; conditions: fluorescent protein based assay
# [12] = tested on: A431-G2 cells (ABCG2 expressing); test: Fluorescence-based cytotoxicity assay, ABCG2-expressing A431-G2 mOr; conditions: triple co-culture, result in words
# Mes-Sa/Dx5 cells [13] = tested on: Mes-Sa/Dx5 cells
# ABCB1 (P-glycoprotein) = test: Fluorescence-based cytotoxicity assay, ABCB1-expressing A431-B1 mCh; conditions: human
# ABCG2 = test: Fluorescence-based cytotoxicity assay, ABCG2-expressing A431-G2 mOr; conditions: human
# [14] = Homo sapiens, A-431, read-out: IC50 (µM) A431 eGFP, co-culture
# [15] = Homo sapiens, A-431, read-out: IC50 (µM) A431 eGFP, monoculture
# [16] = A431-2B1 mCherry cells (OATP2B1-expressing), monoculture
Structure (SMILES),RR (Mes-Sa-B1) [1],RR (Dx5) (Mes-Sa/Dx5 cells [2]; triple co-culture screen),IC50 (A431 cells [3]; [14]) [µM],IC50 (A431 cells [3]; [15]) [µM],RR (A431B1) [4],"SR, monoculture [5]","SR (A431-2B1 vs parental A431), screening of DTP Oncology Set IV [5]",IC50 at […] (OATP2B1 [6]) [µM],IC50 at […] (OATP2B1 [6]; [16]) [µM],IC50 (OATP2B1 [7]) [µM],"SR, co-culture [5]",further results
"CC(=O)O[C@@]12CO[C@@H]1C[C@H](O)[C@@]1(C)C(=O)[C@H](O)C3=C(C)[C@@H](OC(=O)[C@H](O)[C@@H](NC(=O)OC(C)(C)C)c4ccccc4)C[C@@](O)([C@@H](OC(=O)c4ccccc4)[C@H]21)C3(C)C [NSC-628503, Docetaxel]",275.00,295.00,0.08,0.00097,26.38,4.35^*,4.00,0.002,0.00022,11.3 ± 0.38,–,–
"CCCCCOC(=O)Nc1nc(=O)n([C@@H]2O[C@H](C)[C@@H](O)[C@H]2O)cc1F [NSC-712807, Capecitabine]",–,–,205,391,–,3.04^**,3.41,44.5,129,124 ± 6.42,4.62^**,–
"Cc1c(N)nc([C@H](CC(N)=O)NC[C@H](N)C(N)=O)nc1C(=O)N[C@H](C(=O)N[C@H](C)[C@@H](O)[C@H](C)C(=O)N[C@H](C(=O)NCCc1nc(-c2nc(C(=O)NCCC[S+](C)C)cs2)cs1)[C@@H](C)O)[C@@H](OC1OC(CO)C(O)C(O)C1OC1OC(CO)C(O)C(OC(N)=O)C1O)c1cnc[nH]1 (stereo partly shown) [NSC-125066, Bleomycin]",–,–,–,–,–,–,–,–,–,–,–,"SR (Mes-Sa/DX5) (Mes-Sa/Dx5 cells [2]; selectivity ratio = IC50 parental Mes-Sa / IC50 Mes-Sa/Dx5, triple co-culture screen): 57.8; IC50 (A431 cells [3]; read-out: IC50 (µM) A431 eGFP, co-culture, co-culture with A431-2B1 mCh, 9 concentration points, at least 3 replicates): 7.47 µM; IC50 (A431 cells [3]; read-out: IC50 (µM) A431 eGFP, monoculture, 9 concentration points, at least 3 replicates): 16.3 µM; IC50 ([5]; read-out: IC50 (µM) A4312B1 mCh, co-culture, co-culture with A431 eGFP): 0.83 µM; IC50 ([5]; read-out: IC50 (µM) A4312B1 mCh, monoculture): 1.5 µM; IC50 (OATP2B1 [7]; read-out: IC50, inhibition of OATP2B1-mediated Cascade Blue (CB) uptake, CB 10 µM, 30 min, average ± SD): 64.2 ± 6.1 µM"
"CN(Cc1cnc2nc(N)nc(N)c2n1)c1ccc(C(=O)N[C@@H](CCC(=O)O)C(=O)O)cc1 [NSC-740, Methotrexate]",–,–,0.38,0.43,–,3.59^**,9.00,0.03,0.12,265 ± 31.4,11.78^**,–
Oc1c(CN2CCCCC2)ccc2cccnc12 [NSC57969],–,–,–,–,–,–,–,–,–,–,–,"IC50 (A431 cells [8]): 4.93 µM; IC50 (A431B1 cells): 0.974 µM; IC50 (A431G2 cells): 5.76 µM; IC50 (Mes-Sa cells [9]): 4.89 µM; IC50 (Mes-Sa/Dx5 cells [10]): 0.815 µM; IC50 (Mes-Sa-B1 cells): 1.48 µM; IC50 ([1]; read-out: IC50 Mes-Sa-B1, monoculture, monoculture): 2.81 µM; IC50 ([1]; read-out: IC50 Mes-Sa-B1, triple co-culture, triple co-culture): 1.8 µM; IC50 (Mes-Sa/Dx5 cells [2]; read-out: IC50 Mes-Sa/DX5, monoculture, monoculture): 0.951 µM; IC50 (Mes-Sa/Dx5 cells [2]; read-out: IC50 Mes-Sa/DX5, triple co-culture, triple co-culture): 0.177 µM; IC50 (A431 cells [3]; read-out: IC50 A431, monoculture, fluorescent protein based assay, monoculture): 5.13 µM; IC50 (A431 cells [3]; read-out: IC50 A431, triple co-culture, fluorescent protein based assay, triple co-culture): 7.09 µM; IC50 (Mes-Sa cells [11]; read-out: IC50 Mes-Sa, monoculture, monoculture): 5.08 µM; IC50 (Mes-Sa cells [11]; read-out: IC50 Mes-Sa, triple co-culture, triple co-culture): 3.21 µM; IC50 ([4]; read-out: IC50 A431B1, monoculture, monoculture): 0.774 µM; IC50 ([4]; read-out: IC50 A431B1, triple co-culture, triple co-culture): 2.78 µM; Effect of ABCG2 expression on toxicity (A431-G2 vs parental A431) [12]: did not sensitize"
"CO[C@@]12[C@H](COC(N)=O)C3=C(C(=O)C(C)=C(N)C3=O)N1C[C@@H]1N[C@@H]12 [NSC-26980, Mitomycin]",–,–,–,–,–,–,–,–,–,–,–,SR (Mes-Sa/DX5) (Mes-Sa/Dx5 cells [13]): 4.407; SR (Mes-Sa-B1) [1]: 0.56
"COc1cc([C@@H]2c3cc4c(cc3[C@@H](O[C@@H]3O[C@@H]5CO[C@@H](C)O[C@H]5[C@H](O)[C@H]3O)[C@H]3COC(=O)[C@H]23)OCO4)cc(OC)c1O [NSC-141540, Etoposide]",16.97,> 61.73,7.45,6.42,> 4.14,3.2^*,3.017,0.82,1.99,1.88 ± 0.32,9.06^**,"IC50 (A431 cells [8]; Homo sapiens, A-431): 1.19 µM; IC50 (A431B1 cells; Homo sapiens): 5.49 µM; IC50 (A431G2 cells; Homo sapiens): 3.43 µM; IC50 (A431 cells [3]; Homo sapiens, A-431, read-out: IC50 A431, monoculture): 6.1 µM; IC50 (A431 cells [3]; Homo sapiens, A-431, read-out: IC50 A431, triple co-culture): 1.69 µM; IC50 at […] (ABCB1 (P-glycoprotein)): 13.8 µM; IC50 at […] (ABCB1 (P-glycoprotein); A431-B1 mCherry cells (ABCB1-expressing), monoculture): 46.3 µM; IC50 at […] (ABCG2): 4.05 µM; IC50 at […] (ABCG2; A431-G2 mOrange cells (ABCG2-expressing), monoculture): 12 µM"
"COc1cc([C@@H]2c3cc4c(cc3[C@@H](O[C@@H]3O[C@@H]5CO[C@@H](c6cccs6)O[C@H]5[C@H](O)[C@H]3O)[C@H]3COC(=O)[C@H]23)OCO4)cc(OC)c1O [NSC-122819, Teniposide]",41.88,75.25,0.45,0.83,5.43,6.1^**,4.78,0.07,0.14,4.59 ± 0.4,6.02^*,–
